The values that follow come from ChEMBL document CHEMBL6153121, “Anti-Inflammatory Dimeric and Trimeric Flavonoids from the Roots ofPistacia weinmannifolia” (J Nat Prod, 2025).

Each structure is given as a SMILES string. Active and inactive are the calls of the source. The calls are words filed in the database; no cut-off is given here.

Data set [1] deals with NCI-H292. As to the kind of experiment: Antiinflammatory activity against PMA-stimulated human NCI-H292 cells assessed as reduction in IL-8 secretion at 1 uM incubated for 24 hrs by ELISA. It counts as functional, cell-based.
For data set [2], the system named is NCI-H292. As to the kind of experiment: Antiinflammatory activity against PMA-stimulated human NCI-H292 cells assessed as reduction in MUC5AC secretion at 1 uM incubated for 24 hrs by ELISA. It counts as functional, cell-based. (ELISA stands for enzyme-linked immunosorbent assay.)
Data set [3] concerns NCI-H292. The data set is described as follows: Cytotoxicity against human NCI-H292 cells assessed as redcution in cell viability at 0.25 to 1 uM incubated for 24 hrs in presence of PMA by CCK-8 assay. The format is toxicity, cell-based. As to conditions: nci-h292, 24 h, dose 0.25-1 µM.

Turning to `O=C(/C=C/c1ccc(O)c(-c2cc(C(=O)/C=C/c3ccc(O)cc3)c(O)cc2O)c1)c1ccc(O)cc1O`, the result in data set [1] and in data set [2] was Active. Turning to `O=C(/C=C/c1ccc(Oc2ccc([C@H]3Oc4cc(O)ccc4C(=O)[C@@H]3[C@@H]3C(=O)c4ccc(O)cc4O[C@H]3c3ccc(O)c(O)c3)cc2)cc1)c1ccc(O)cc1O`, the Activity result in data set [3] was “Toxic”. On to `O=C(/C=C/c1ccc(O)cc1)c1ccc2c(c1O)[C@H](C(=O)c1ccc(O)cc1O)[C@@H](c1ccc(O)cc1)O2`, for which the result in data set [1] and in data set [2] was Active. On to `O=C(/C=C/c1ccc(Oc2ccc(/C=C/C(=O)c3ccc(O)cc3O)cc2O)cc1)c1ccc(O)cc1O`, for which the Activity entry in data set [1] and in data set [2] was “Active; Effectively Inhibited The Secretion” in each case.

`O=C(/C=C/c1ccc(Oc2ccc([C@@H]3[C@@H](C(=O)c4ccc(O)cc4O)[C@H](C(=O)c4ccc(O)cc4O)[C@H]3c3ccc(O)cc3)cc2O)cc1)c1ccc(O)cc1O`: the Activity result in data set [1] and in data set [2] was “Active; Effectively Inhibited The Secretion” in each case. As for `O=C(/C=C/c1ccc(Oc2c(O)ccc(C(=O)/C=C/c3ccc(O)cc3)c2O)cc1)c1ccc(O)cc1`, the outcome in data set [1] was inactive. Besides, the result in data set [2] was Active. In the same order, the values of `O=C1C[C@@H](c2ccc(O)cc2)Oc2cc(Oc3ccc([C@@H]4[C@@H](C(=O)c5ccc(O)cc5O)[C@H](C(=O)c5ccc(O)cc5O)[C@H]4c4ccc(O)cc4)cc3O)ccc21` are “Active” and “Active”.

As for `O=C(/C=C/c1ccc(Oc2cc(C(=O)/C=C/c3ccc(O)cc3)c(O)cc2O)cc1)c1ccc(O)cc1O`, the Activity result in data set [1] and in data set [2] was “Active; Effectively Inhibited The Secretion” in each case.
